Here are results for one compound from PMC5923142, “Selection and Characterization of Rupintrivir-Resistant Norwalk Virus Replicon Cells In Vitro” (Antimicrobial Agents and Chemotherapy, 2018).

Each structure is given as a SMILES string. Numbering of substitutions follows the chain as printed.

The target in experiment [1] is T1, GI WT protease (Norovirus, UniProt Q83883).
T1 construct: plasmids expressing norovirus protease from GI.1 (M87661); expressed in transfected cells; host or cells: HEK293T
T1 sequence (Q83883 1101-1281): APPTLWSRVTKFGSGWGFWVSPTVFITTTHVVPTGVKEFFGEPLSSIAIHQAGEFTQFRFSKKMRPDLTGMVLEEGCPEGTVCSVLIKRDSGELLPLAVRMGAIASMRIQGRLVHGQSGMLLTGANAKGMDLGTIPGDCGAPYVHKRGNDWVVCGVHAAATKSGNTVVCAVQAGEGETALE
The experiment in a line: Cell-based FRET assay, GI WT protease. On the set-up: species or system norovirus GI.1 (M87661). Particulars: HEK293T cells, GI NS1/2-NS3 FRET substrate; read-out: 50% inhibitory concentration (IC50). From the text:
(§1) The generation of plasmids expressing norovirus protease from GI.1 (M87661), GII.4 (DQ658413), or GV (DQ285629) norovirus and FRET assay constructs has been described previously ([18]). The plasmids carrying GI, GII, and GV proteases with the A105V, I109V, or A105V/I109V mutation were generated from the wild-type (WT) protease constructs described above by the QuikChange site-directed mutagenesis method. Mutant MNV genomes for reverse genetics were generated by two-step PCR mutagenesis of the WT MNV genome (pT7 MNV 3RZ) construct as described previously ([27]). The primers used for generation of the plasmids are listed in Tables S1 and S2 in the supplemental material.
(§2) The YFP/CFP ratio was used to determine FRET efficiency, as described previously ([18], [40]). Briefly, HEK293T cells were plated into black 96-well cell culture microplates (Greiner Bio-One) at a density of 5 × 10^4 cells/well in 100 μl of DMEM containing 10% fetal bovine serum with or without various concentrations of rupintrivir and then incubated for 4 h in a CO2 incubator at 37°C. […] The plates were then analyzed on a SpectraMax i3 instrument in fluorescence mode, with excitation set at 434 nm and the reading emissions set at 477 nm (CFP) and 527 nm (YFP). The background fluorescence from wells transfected with pcDNA3.1 was determined and subtracted. […]

Experiment [2] addresses T2, MNV A105V/I109V protease (polyprotein) (Norovirus, UniProt Q80J95, A1099V/I1103V).
T2 construct: in vitro-transcribed MNV full-length capped RNA containing either the WT or mutant proteases; made in house; host or cells: rabbit reticulocyte lysate (Flexi system, Promega), in vitro translation
The experiment in a line: In vitro translation, MNV polyprotein processing, A105V/I109V protease. Type of experiment: biochemical, murine norovirus. Particulars: 80 μM, rabbit reticulocyte lysate. As to the method: FIG 4 Impact of rupintrivir resistance-conferring mutations on MNV polyprotein processing in vitro. In vitro translation reactions were programmed with equal quantities of in vitro-transcribed MNV full-length capped RNA containing either the WT or mutant proteases in the presence and absence of 80 μM rupintrivir. The [^35S]methionine-labeled products were subsequently analyzed by SDS-PAGE and phosphorimaging analysis. The percentage of fully processed NS3, determined on the basis of the expected molecular mass of the proteins, was calculated and expressed relative to the total amount of viral protein produced.
In vitro translation reactions were performed using a Flexi rabbit reticulocyte lysate system (Promega). The reaction mixtures were prepared according to the manufacturer's instructions as described for capped mRNAs and programmed with 1 μg of RNA per 25-μl reaction mixture. The reaction mixtures were incubated at 30°C for 90 min prior to the addition of an equal volume of SDS-PAGE sample buffer. Samples were subsequently resolved on a 12.5% SDS-polyacrylamide gel before exposure to a phosphorimager screen.

For experiment [3], the target named is T3, GV A105V/I109V mutant protease (Norovirus, UniProt Q80J95, A1099V/I1103V).
T3 construct: plasmids expressing norovirus protease from GI.1 (M87661), GII.4 (DQ658413), or GV (DQ285629) norovirus; expressed in transfected cells; host or cells: HEK293T
T3 sequence (Q80J95 995-1177 A1099V/I1103V): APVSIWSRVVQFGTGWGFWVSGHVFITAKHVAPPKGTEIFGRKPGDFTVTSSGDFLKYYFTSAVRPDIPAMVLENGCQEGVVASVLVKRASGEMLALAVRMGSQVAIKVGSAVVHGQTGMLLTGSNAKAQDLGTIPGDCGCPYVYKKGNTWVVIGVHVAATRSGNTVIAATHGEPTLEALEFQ
The experiment in a line: Cell-based FRET assay, GV A105V/I109V protease. On the set-up: species or system murine norovirus (MNV) GV (DQ285629).
Description: as §1, §2

Experiment [4] relates to HRV2 N165T. On the set-up: method as in PMID 17908951. Conditions: serial passage of HRV2 for 62 days; cited from earlier work.
For experiment [5], the system named is recombinant WT MNV. The experiment in a line: Antiviral effect against recombinant WT MNV infection of BV-2 cells (TCID50). Type of experiment: cell-based, murine norovirus. Conditions: BV-2, 24 h. The protocol: BV-2 cells were infected with recombinant WT MNV or the MNV I109V mutant at an MOI of 0.1 or 1 for 1 h in the CO2 incubator at 37°C. After incubation, the supernatant was removed and the cells were washed twice with PBS, and then complete DMEM containing various concentrations of rupintrivir or 2CMC was added to the cells. After 24 h for incubation, the virus titers of the supernatant were determined by measurement of the TCID50. On the basis of the TCID50, the 90% effective concentration (EC90) values of rupintrivir and 2CMC were calculated using XLfit (version 5.3) software.

In experiment [6] the target is T4, GI A105V/I109V mutant protease (Norovirus, UniProt Q83883, A1205V/I1209V).
T4 construct: plasmids expressing norovirus protease from GI.1 (M87661); expressed in transfected cells; host or cells: HEK293T
T4 sequence (Q83883 1101-1281 A1205V/I1209V): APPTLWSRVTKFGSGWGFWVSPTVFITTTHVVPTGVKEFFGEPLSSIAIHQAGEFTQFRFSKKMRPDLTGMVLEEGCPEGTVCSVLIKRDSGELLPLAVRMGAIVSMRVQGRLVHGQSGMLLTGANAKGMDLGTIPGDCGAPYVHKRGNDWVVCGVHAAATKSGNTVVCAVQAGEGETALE
As to the kind of experiment: Cell-based FRET assay, GI A105V/I109V protease. Further details: species or system norovirus GI.1 (M87661).
Description: as §1, §2

The target of experiment [7] is T5, GV I109V mutant protease (Norovirus, UniProt Q80J95, I1103V).
T5 construct: plasmids expressing norovirus protease from GI.1 (M87661), GII.4 (DQ658413), or GV (DQ285629) norovirus; expressed in transfected cells; host or cells: HEK293T
T5 sequence (Q80J95 995-1177 I1103V): T3 sequence (Q80J95 995-1177 A1099V/I1103V) with V105A
As to the kind of experiment: Cell-based FRET assay, GV I109V protease. On the set-up: species or system murine norovirus (MNV) GV (DQ285629).
Description: as §1, §2

Setting [8] is: HEK293T cells, GV NS1/2-NS3 FRET substrate.

Regarding `CCOC(=O)/C=C/[C@H](C[C@@H]1CCNC1=O)NC(=O)[C@@H](CC(=O)[C@@H](NC(=O)c1cc(C)on1)C(C)C)Cc1ccc(F)cc1` [rupintrivir, Rupintrivir], the IC50 in experiment [1] is 1.3 ± 0.4 µM; in experiment [3] (setting [8]), 2.3 ± 0.3 µM; in experiment [6] (HEK293T cells, GI NS1/2-NS3 FRET substrate) it was 6.6 ± 1.2 µM; in experiment [7] (setting [8]), 2.7 ± 0.6 µM. Besides, the “polyprotein processing (mature NS3)” value in experiment [2] is given as “still able to produce mature NS3”. In addition, the “fold increase in IC50” value in experiment [3] (vs GV WT protease) came out at 2.3 fold; in experiment [6] (vs GI WT protease) it was 5.1 fold; in experiment [7] (vs GV WT protease), 2.7 fold. Also, the fold reduced susceptibility in experiment [4] is reported as 2 fold. Besides, the results for the EC90 in experiment [5] (MOI 0.1 TCID50/cell) and in experiment [5] (MOI 1 TCID50/cell) were 9.1 µM and 8.9 µM, respectively.

In general, EC90 refers to the concentration needed for an effect of 90%.
